Tests used:
LoVo Colon cell line = assay: Cytotoxicity assay using LoVo colon cell line, SRB; format: cell-based; details: Homo sapiens, 96 h; Cellular activity in LoVo cell; 4 days incubation, SRB; read-out: Inhibition of LoVo
How it was run: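 LoVo cells (4000/well, RPMI 1640 with 10% FBS, 37 °C, 7% CO2) seeded overnight, then exposed 4 days to serial dilutions spanning 5 pM-20 μM or 170 pg/ml-10 μg/ml. Survival by SRB staining; IC50 from curves relative to untreated controls.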

[1] = system: 80S14 (p21-deficient) cells; assay: Cytotoxicity assay using isogenic cell lines: IC50 in 80S14 (p21-deficient) cells, SRB; format: cell-based, human; details: Homo sapiens, 120 h; 80S14 (p21-deficient) cells, 5 days, SRB; class symbols; read-out: IC50 for 80S14
How it was run: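 80S14 (p21-deficient) cells seeded at 12,000 cells/well overnight, then exposed 5 days at 37 °C to serial dilutions (5 pM–50 μM or 170 pg/ml–10 μg/ml). TCA-fixed, sulforhodamine B-stained, absorbance at 560 nm; IC50 taken from cytotoxicity curves versus untreated controls.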

SMILES	IC50 (LoVo Colon cell line) [nM]	IC50 [1] [nM]	melting point [°C]
CC(C)CCNc1cccc(-c2ccnc3c(C(=O)c4cccs4)cnn23)c1 [Example 350, {7-[3-(Isopentylamino)phenyl]pyrazolo[1,5-a]pyrimidin-3-yl}(thien-2-yl)methanone]	< 100	< 1000	75 to 77
O=C(Nc1cccc(-c2ccnc3c(C(=O)c4cccs4)cnn23)c1)c1ccccc1F [Example 358, 2-Fluoro-N-{3-[3-(thien-2-ylcarbonyl)pyrazolo[1,5-a]pyrimidin-7-yl]phenyl}benzamide]	< 100	< 1000	190 to 191
O=C(c1cccs1)c1cnn2c(Cl)ccnc12 [Example 390, (7-Chloropyrazolo[1,5-a]pyrimidin-3-yl)(thien-2-yl)methanone]	1000 to 20000	1000 to 10000	148 to 150
COc1ccccc1/C=C/CNc1cccc(-c2ccnc3c(C(=O)c4cccs4)cnn23)c1 [Example 395, [7-(3-{[(2E)-3-(2-Methoxyphenyl)prop-2-enyl]amino}phenyl)pyrazolo[1,5-a]pyrimidin-3-yl](thien-2-yl)methanone]	1000 to 20000	10000 to 50000	128 to 131
O=C(Nc1cccc(-c2ccnc3c(C(=O)c4cccs4)cnn23)c1)OCCCN1CCS(=O)(=O)CC1 [Example 420, 3-(1,1-Dioxidothiomorpholin-4-yl)propyl 3-[3-(thien-2-ylcarbonyl)pyrazolo[1,5-a]pyrimidin-7-yl]phenylcarbamate]	100 to 1000	< 1000	148 to 159
CC(C)CC(=O)Nc1cccc(-c2ccnc3c(-c4cccc(N)c4)cnn23)c1 [Example 464, N-{3-[3-(3-Aminophenyl)pyrazolo[1,5-a]pyrimidin-7-yl]phenyl}-3-methylbutanamide]	1000 to 20000	10000 to 50000	173 to 175
O=C(c1cccs1)c1cnn2c(-c3cccc(-c4cc[nH]n4)c3)ccnc12 [Example 514, {7-[3-(1H-Pyrazol-3-yl)phenyl]pyrazolo[1,5-a]pyrimidin-3-yl}(thien-2-yl)methanone]	100 to 1000	< 1000	129
O=C(c1cccs1)c1cnn2c(-c3cccc(-c4ccn(CCN5CCCCC5)n4)c3)ccnc12 [Example 519, (7-{3-[1-(2-piperidin-1-ylethyl)-1H-pyrazol-3-yl]phenyl}pyrazolo[1,5-a]pyrimidin-3-yl)(thien-2-yl)methanone]	100 to 1000	1000 to 10000	62

From patent US20060063784A1, “Method of using substituted pyrazolo [1,5-a] pyrimidines” (priority 2004, published 2006)
